± gives the expanded uncertainty stated by the source.
Experiments:
[1] = xn = mol fraction of the nth substance listed; details: 101 kPa, Liquid, x1 = 1; for viscosity: Capillary tube (Ostwald / Ubbelohde) method; for mass density: Vibrating tube method
[2] = 101 kPa, Liquid; for viscosity: Capillary tube (Ostwald / Ubbelohde) method; for mass density: Vibrating tube method

Structure (SMILES)	viscosity ([1]; 293.15 K) [mPa·s]	viscosity ([1]; 303.15 K) [mPa·s]	viscosity ([1]; 313.15 K) [mPa·s]	viscosity ([1]; 323.15 K) [mPa·s]	mass density ([1]; 323.15 K) [kg/m3]	viscosity ([1]; 333.15 K) [mPa·s]	mass density ([1]; 333.15 K) [kg/m3]	viscosity ([2]; 293.15 K) [mPa·s]	viscosity ([2]; 303.15 K) [mPa·s]	viscosity ([2]; 313.15 K) [mPa·s]	viscosity ([2]; 323.15 K) [mPa·s]	mass density ([2]; 323.15 K) [kg/m3]	viscosity ([2]; 333.15 K) [mPa·s]	mass density ([2]; 333.15 K) [kg/m3]	mass density ([2]; 293.15 K) [kg/m3]	mass density ([2]; 303.15 K) [kg/m3]	mass density ([2]; 313.15 K) [kg/m3]
O [water] + CCCCCCn1cc[n+](C)c1.[Br-]	1.304 ± 0.012	1.002 ± 0.01	0.653 ± 0.007	0.544 ± 0.005	988 ± 0.1	0.467 ± 0.005	983.2 ± 0.1	–	–	–	–	–	–	–	–	–	–
O [water]	–	–	–	–	–	–	–	1.304 ± 0.012	1.002 ± 0.01	0.653 ± 0.007	0.544 ± 0.005	988 ± 0.1	0.467 ± 0.005	983.2 ± 0.1	–	–	–
CCCCCCn1cc[n+](C)c1.[Br-] [3-hexyl-1-methyl-1H-imidazolium bromide]	–	–	–	–	–	–	–	6936 ± 750	2239 ± 200	851.65 ± 56	512.14 ± 27	1205.7 ± 1.7	350.69 ± 16	1198.6 ± 1.6	1227.4 ± 1.7	1220.1 ± 1.7	1213.3 ± 1.7

— the NIST ThermoML archive (doi:10.1016/j.jct.2010.03.002)
